One data set has as its system M. bovis BCG. Description: microbe, parasite or virus in culture. The class given is cell-based, Mycobacterium bovis BCG. The settings on record: for MIC With medium containing 50 % FBS / MIC in 100% medium: M. bovis BCG, resazurin assay; for MIC With medium containing 50 % FBS: 50 % fetal bovine serum; for MIC in 100% medium: no FBS; for MIC: Mycobacterium tuberculosis variant bovis BCG, BCG, read-out: MIC With medium containing 50 % FBS.

Another data set deals with M. tuberculosis H37Rv. The data set is described as follows: Resazurin microtiter assay (REMA), MIC. The settings on record: for MIC: Mycobacterium tuberculosis; for synergistic effect with ethambutol: in words. Format: cell-based.
The next data set deals with L929 cell line. The data set is described as follows: MTT cell proliferation assay (in vitro toxicity). Format: cell-based, mouse. To be noted: for IC50: Mus musculus, L929, 120 h. (Tetrazolium dyes change colour on reduction, which living cells bring about.)
For data set [1] the following is noted: in words; Haebich & Von Nussbaum, 2009; cited from earlier work.
The mark [2] stands for this setting: H37RV, REMA, individual substance, read-out: MIC (µg/ml) against M. tuberculosis H37Rv Individual substance.
The mark [3] stands for this setting: MTT assay after 5 days, individual substances, read-out: In vitro toxicity with L929 cell line IC50.
[4] abbreviates: MTT assay after 5 days, individual substances.
Where [5] appears, read: H37RV, read-out: MIC (µg/ml) against M. tuberculosis H37Rv With medium containing ethambutol.

Converted amounts (≈) assume the structure as drawn. Read-outs that look alike come from different tables or passages of the source.

In the case of `CC[C@@H](CO)NCCN[C@@H](CC)CO` [Ethambutol], in the data set on M. bovis BCG, the “MIC With medium containing 50 % FBS” value was “not affected by the addition of the FBS”, the “MIC in 100% medium” value was determined as 2.5 and the MIC turned out to be 2.5 µg/mL (≈ 12.2 µM). Moreover, the MIC in the data set with M. tuberculosis H37Rv (setting [2]) amounted to 1.6 µg/mL (≈ 7.83 µM). For the same compound, in the data set on L929 cell line (setting [3]), the IC50 was > 100 µg/mL.
`C/C=C/C/C=C(\C)C(O)CC/C(C)=C/C=C(\C)C(=O)c1c(O)cc([C@H](C)CC/C=C/NC(=O)OC)oc1=O` (stereo partly drawn) [Corallopyronin]: the serum protein binding result in data set [1] is “high serum protein binding”. Besides, in the data set with M. tuberculosis H37Rv (REMA, Ethambutol at Conc. 0.3 µg/ml in medium), the “MIC (µg/ml) against M. tuberculosis H37Rv With medium containing ethambutol” value was determined as 12.5 µg/mL (≈ 23.7 µM). Besides, in the data set with M. tuberculosis H37Rv (REMA, individual substance), the “MIC (µg/ml) against M. tuberculosis H37Rv Individual substance” value came out at 12.5 µg/mL (≈ 23.7 µM). In the data set on M. tuberculosis H37Rv, the “synergistic effect with ethambutol” value was “did not show synergism with ethambutol”. Moreover, the “In vitro toxicity with L929 cell line IC50” value in the data set on L929 cell line (setting [4]) came to 25 µg/mL.
In the case of `C/C(=C\Cc1ccccc1)CCC(=O)C[C@H]1C[C@H](O)C/C(C)=C/C/C=C/C/C(CC(=O)O)=C\C(=O)O1` [Ripostatin], the MIC in the data set on M. tuberculosis H37Rv (setting [5]) and in the data set with M. tuberculosis H37Rv (setting [2]) was > 25 µg/mL each time. Moreover, the “MIC (µg/ml) against M. tuberculosis H37Rv Individual substance” value in the data set on M. tuberculosis H37Rv (REMA, individual substance) is “no inhibition up to 25 µg/ml”; in the data set with M. tuberculosis H37Rv (REMA, individual substance, listed as ripostatin), > 25 µg/mL. Besides, the “synergistic effect with ethambutol” value in the data set on M. tuberculosis H37Rv is recorded as “did not show synergism with ethambutol”. Besides, the IC50 in the data set on L929 cell line (setting [3]) was > 100 µg/mL.
On to `CCCC(C)=CC=C(C)C(=O)c1c(O)cc(C(C)CCC=CNC(=O)OC)oc1=O` (stereo not drawn) [Myxopyronin A], for which the serum protein binding result in data set [1] is listed as “high serum protein binding”. In addition, in the data set with M. bovis BCG, the “MIC With medium containing 50 % FBS” value is “did not inhibit the growth of M. bovis BCG”, the “MIC in 100% medium” value was 6.25 and the MIC is > 25 µg/mL. Also, in the data set on M. tuberculosis H37Rv (H37RV), the FIC stood at 0.64 and the “MIC (µg/ml) against M. tuberculosis H37Rv Individual substance” value was 6.25 µg/mL (≈ 15 µM). Moreover, the MIC in the data set on M. tuberculosis H37Rv (H37RV, read-out: MIC (µg/ml) against M. tuberculosis H37Rv Individual substance) was found to be 6.25 µg/mL (≈ 15 µM). For the same compound, the MIC with M. tuberculosis H37Rv (setting [5]) is 3.12 µg/mL (≈ 7.48 µM). The “synergistic effect with ethambutol” value in the data set with M. tuberculosis H37Rv is reported as “synergistic effect”. The “In vitro toxicity with L929 cell line IC50 (µg/ml)” value in the data set with L929 cell line (setting [4]) is reported as “did not inhibit L929 cell proliferation at all tested concentrations”. Besides, the IC50 in the data set on L929 cell line (read-out: In vitro toxicity with L929 cell line IC50 (µg/ml)) was > 100 µg/mL.

The record behind these values is EP2742937A1, “Compositions for use in the treatment of bacterial infections” (LIONEX Diagnostics and Therapeutics GmbH, priority 2012, dated 2014).
